# Reference: ChEMBL document CHEMBL5120822, “Inhibition of the P2X7/NLRP3 Inflammasome Signaling Pathway by Deacetylgedunin from Toona sinensis” (J Nat Prod, 2022)
# Calls of active or inactive are those of the source. The calls are words filed in the database; no cut-off is given here.
# Columns and labels:
# [1] = test system: RAW264.7; assay: Antiinflammatory activity in mouse RAW264.7 assessed as inhibition of LPS-induced NO production incubated for 1 hrs followed by LPS stimulation for 18 hrs by Griess reagent based assay; type: functional, cell-based
# [2] = test system: RAW264.7; assay: Cytotoxicity against mouse RAW264.7 cells derived macrophage assessed as reduction in cell viability upto 40 uM incubated for 24 hrs by CCK-8 assay; type: toxicity, cell-based; details: raw264.7, 24 h
# [3] = test system: THP-1; assay: Cytotoxicity against human THP-1 cells derived macrophage assessed as reduction in cell viability upto 40 uM incubated for 24 hrs by CCK-8 assay; type: toxicity, cell-based; details: thp-1, 24 h
# [4] = test system: THP-1; assay: Antiinflammatory activity against PMA-differentiated human THP-1 cells assessed as reduction in IL-1beta level at 20 uM incubated for 1 hrs followed by LPS stimulation for 12 hrs and ATP addition for 0.5 hrs by ELISA; type: functional, cell-based; details: time 13.5 hrs
SMILES,IC50 [1] [µM],Activity [2],Activity [3],Activity [4]
CNC(=N)NCCC[C@H](N)C(=O)O [TILARGININE],44.4,,,
CC1(C)C(=O)C=C[C@]2(C)[C@H]3CC[C@@]4(C)[C@H](c5ccoc5)OC(=O)[C@H]5O[C@]54[C@]3(C)C(=O)C[C@@H]12 [DEACETOXY-7-OXOGEDUNIN],9.46,Toxic,Toxic,Active
